Results as given in the NIST ThermoML archive (doi:10.1016/j.jct.2017.06.001).

Experiment: xn = mol fraction of the nth substance listed
Settings: 100 kPa, Liquid, Vibrating tube method

OCCCCCO [1,5-pentanediol] + O
mass density [kg/m3]
Settings | 318.15 K | 323.15 K | 328.15 K | 333.15 K
x1 = 0.005 | – | 987.42 | 985.03 | 982.48
x1 = 0.0101 | – | 987.12 | 984.7 | 982.09
x1 = 0.0196 | – | 986.93 | 984.4 | 981.69
x1 = 0.0251 | – | 987.06 | 984.49 | 981.7
x1 = 0.0304 | – | 987.26 | 984.6 | 981.74
x1 = 0.05 | – | 987.48 | 984.62 | 981.63
x1 = 0.0769 | – | 987.42 | 984.36 | 981.19
x1 = 0.1002 | – | 987.52 | 984.33 | 981.04
x1 = 0.1438 | – | 987.17 | 983.84 | 980.43
x1 = 0.1845 | – | 986.36 | 982.94 | 979.44
x1 = 0.2503 | – | 985.12 | 981.66 | 978.15
x1 = 0.3 | – | 983.93 | 980.46 | 976.99
x1 = 0.3343 | – | 983.17 | 979.7 | 976.21
x1 = 0.4171 | – | 981.65 | 978.26 | 974.8
x1 = 0.454 | – | 980.83 | 977.43 | 973.98
x1 = 0.5003 | – | 980 | 976.6 | 973.2
x1 = 0.5362 | – | 979.3 | 976 | 972.6
x1 = 0.6177 | – | 978 | 974.8 | 971.5
x1 = 0.6478 | – | 977.5 | 974.3 | 971
x1 = 0.7025 | – | 976.7 | 973.6 | 970.3
x1 = 0.7504 | – | 976.1 | 972.9 | 969.7
x1 = 0.7927 | – | 975.4 | 972.3 | 969.1
x1 = 0.8605 | – | 974.4 | 971.3 | 968.1
x1 = 0.9004 | – | 973.7 | 970.7 | 967.6
x1 = 0.9496 | 975.8 | 972.8 | 969.9 | 966.7
x1 = 1 | 974.9 | 971.9 | 969 | 965.9
